The record followed here is US20210017499A1, “SILOXANE POLYMER-BASED CANCER STEM CELL PREPARATION METHOD” (KOREA ADVANCED INSTITUTE OF SCIENCE AND TECHNOLOGY, priority 2019, published 2021).

Each structure is given as a SMILES string.

Assay in all cases: Cell viability for doxorubicin (WST-1)
What all share (format): cell-based, human

The test system of one assay is SKOV3-ssiCSC. Conditions: DOX at various concentrations, 24 hours. As for the experimental part:
(§1) ssiCSC spheroids prepared from different kinds of cancer cells (SKOV3, MCF-7, Hep3B and SW480) were isolated using trypsin (TrypLE Express, Gibco), and the isolated cells were washed with D-PBS twice. The ssiCSC was plated on a 96-well plate (1×10^4 cells/well) and was cultured in a cell growth medium at 37° C. for 24 hours. Then, the medium was removed, and a new medium comprising various concentrations of doxorubicin was added to each well and cultured for 24 hours. Next, each well was washed with D-PBS and was replaced with a new cell growth medium of 100 μl, and then WST-1 cell proliferation reagent (Roche) of 10 μl was added and cultured for 4 hours. Then, the absorbance at 450 nm (standard wavelength, 600 nm) was measured using a microplate reader (Molecular Devices).
(§2) In addition, the drug resistance of ssiCSC for doxorubicin (DOX) known as an anti-cancer agent was confirmed. Specifically, ssiCSC spheroids prepared by culturing on the pV4D4 surface for 8 days were isolated to single cells, and the cell was cultured on the conventional TCP surface to a 2D single layer, and then DOX at various concentrations was treated for 24 hours.

In another assay the test system is SW480-ssiCSC. Here is the method: as §1, §2
In assay [1] the test system is ssiCSC (SKOV3, MCF-7, Hep3B and SW480). Conditions: Dox of 50 μM, 24 hours, vs 2D control group. Here is the method: as §1, §2

For `COc1cccc2c1C(=O)c1c(O)c3c(c(O)c1C2=O)C[C@@](O)(C(=O)CO)C[C@@H]3O[C@H]1C[C@H](N)[C@H](O)[C@H](C)O1` [Dox, doxorubicin], the “drug resistance (cell viability)” value is “complete resistance” in the assay with SKOV3-ssiCSC; “complete resistance” with SW480-ssiCSC (DOX at various concentrations, 24 hours); “higher resistance” in assay [1]. Besides, the “drug resistance after subculture” value in the assay with SW480-ssiCSC (subcultured on the TCP surface twice) is reported as “maintained drug resistance”. For the same compound, the cell viability result in the assay with SW480-ssiCSC (vs control group cancer cells without DOX) is on record as “higher cell viability than the cancer cells of the control group in which DOX was not treated”.
